Reference: US20170202939A1, “PERSONALIZED CANCER VACCINES AND METHODS THEREFOR” (Washington University, priority 2014, published 2017)
No end group written: not given here.

Target: T1, soluble HLA-A*02:01 from TMC expressing A375 melanoma cells (Homo sapiens, UniProt P04439, D140Y/D185E/D98H/E176V/E277Q/G131W/G231S/I119V/I121R/I166T/I218V/L300P/L318F/N151K/N90K/P208A/P217A/Q86G/Q94H/R138H/R169H/T345S)
T1 construct: TMC expressing A375 melanoma cells were transfected with soluble HLA-A*02:01(sHLA-A*02:01); expressed in transfected cells; host or cells: A375 melanoma cells expressing the MEL218 AAS tandem mini-gene construct
Assay: proteomic analysis (RP-HPLC, LC/MS) of peptides eluted from soluble HLA-A*02:01
Conditions: A375 melanoma cells expressing MEL218 TMC
Experimental: To validate neoantigen processing and presentation, proteomic analysis was performed on peptides eluted from soluble HLA-A*02:01 molecules isolated from melanoma cells expressing a TMC encoding AAS candidates from patient MEL218 tumor (Sercarz, E. E., et al., Annu. Rev. Imunol., 11, 729-766, 1993; Assarsson, E., et al., J. Immunol., 178, 7890-7901, 2007). TMC expressing A375 melanoma cells were transfected with soluble HLA-A*02:01(sHLA-A*02:01) and single cell sorted for a high (>1000 ng/ml in static culture) sHLAA*02:01 producing clone. The sHLA-A*02:01 construct includes a C-terminal VLDLr epitope purification tag ([…] ID NO. 32) that is recognized by the anti-VLDLr mAb (ATCC CRL-2197). This antibody was also used for quantification of sHLA production as the capture antibody in a sandwich ELISA, with an antibody directed against β2-microglobulin (Dako Cytomation) as the detector antibody. Cells were grown in roller bottles and sHLA/peptide complexes were purified from supernatants by affinity chromatography with the anti-VLDLr antibody (Kaabinejadian, S., et al., P.L.o.S. One, 8, e66298, 2013). Eluate fractions containing sHLA/peptide complexes were brought to a final acetic acid concentration of 10%, pooled, and heated to 78° C. in a water bath. Peptides were purified through a 3 kDa molecular weight cutoff cellulose membrane (EMD Millipore) and lyophilized.
Synthetic peptides corresponding to the mutant sequences were resuspended in 10% acetic acid in water at 1 μM, and fractionated by RP-HPLC with an acetonitrile gradient in 10 mM ammonium formate at pH 10. Peptide-containing fractions were dried and resuspended in 25 ul of 10% acetic acid and subjected to nanoscale RP-HPLC at pH 2.5 utilizing an Eksigent nanoLC coupled to a TripleTOF 5600 (AB Sciex) quadrupole time-of-flight mass spectrometer (LC/MS). Information dependent acquisition (IDA) was used to obtain MS and MS/MS fragment spectra for peptide ions. The sequence of each peptide was determined by observed mass and fragment ions, and the 1st dimension fraction number and LC/MS retention times were recorded.
Next, peptides purified from TMC expressing A375 melanoma cells were resuspended in 10% acetic acid and HPLC fractionated under the same conditions and gradient method. Reverse phase HPLC was used to reduce the complexity and determine the elution profile of the pool of soluble HLA-A*02:01 restricted peptides presented by melanoma cells, as well as, the synthetic AAS peptide mixture. FIGS. 40A and 40E illustrate RP-HPLC fractionation of HLA-A*02:01 peptides eluted from the AAS-TMC expressing melanoma cell line (solid trace) and the synthetic peptide mixture containing MEL218 neoantigen candidates (dashed trace), with fraction 50 (FIG. 40A) and fraction 44 (FIG. 40E) indicated. […]

Sequence	HLA-A*02:01 presentation by LC/MS of eluted peptides
IILVAVPHV	confirmed HLA-A*02:01 presentation
MLGEQLFPL	demonstrated the HLA-A*02:01 presentation
